In test [1] the test system is Mono Mac 6 (MM6) cells. Nature of the test: TNF-α induction in human monocytic Mono Mac 6 cells (ELISA). Format: cell-based. The following applies: 5.5 h at 37° C., increasing concentrations. The method, then:
MM6 cells were incubated for 5.5 h at 37° C. with increasing concentrations of E. coli LPS and synthetic compounds 103 and 104 as indicated. TNF-α protein in cell supernatants was measured using ELISA. (103 and 104 show background values and therefore overlap in the figure).
We have chemically synthesized the tetra-acylated lipid As 103 and 104 (FIG. 8) to study whether LPS derived from P. gingivalis can induce cellular activation in a TLR2- or TLR4-dependent manner. Furthermore, there are indications that LPS of P. gingivalis can antagonize cytokine production induced by enteric LPS and therefore these properties have also been studied. […]
Mono Mac 6 (MM6) cells, provided by Dr. H. W. L. Ziegler-Heitbrock (Institute for Inhalationbiology, Munich, Germany), were cultured in RPMI 1640 medium with L-glutamine (BioWhittaker) supplemented with penicillin (100 u mL^−1)/streptomycin (100 μg mL^−1; Mediatech, OPI supplement (1%; Sigma; containing oxaloacetate, pyruvate and bovine insulin) and fetal calf serum (FCS; 10%; HyClone). New batches of frozen cell stock were grown up every 2 months and growth morphology evaluated. Before each experiment, MM6 cells were incubated with calcitriol (10 ng mL^−1; Sigma) for 2 days to differentiate into macrophage like cells. […]
A general note: In an ELISA, binding on a coated surface is turned into a signal by an enzyme label.

Test [2] concerns the target T1, human TLR4/MD2/CD14 (Homo sapiens, UniProt O00206+Q9Y6Y9).
T1 construct: host or cells: HEK 293T
Nature of the test: NF-κB activation in HEK 293T cells stably transfected with human TLR4/MD2/CD14. Type of test: cell-based. As to conditions: 103/104 at 0.1, 1 and 10 μg mL−1; E. coli LPS 10 ng mL−1; 4 h. On the procedure:
Induction of NF-κB activation was determined in triplicate cultures of HEK 293T cells stably transfected with human or mouse (a) TLR4/MD2/CD14 and (b) TLR2 and transiently transfected with pELAM-Luc and pRL-TK plasmids. Forty-four h post-transfection, cells were treated with (B) E. coli LPS (10 ng mL^−1), (C) Pam3CysSK4 (1 μg mL^−1), (D, E and F) 103 (0.1, 1 and 10 μg mL^−1, respectively), (G, H and I) 104 (0.1, 1 and 10 μg mL^−1, respectively) or (A) were left untreated (control). Forty-eight h post-transfection, NF-κB activation was determined by firefly luciferase activity relative to Renilla luciferase activity. n.a. indicates not analyzed. […]
The day before transfection, HEK 293T wild type cells and HEK 293T cells stably transfected with human and murine TLR4/MD2/CD14 and human and murine TLR2 were plated in 96-well tissue culture plates (16,000 cells/well). […] The luciferase activity was measured using the Dual-Luciferase Reporter Assay System (Promega) according to the manufacturer's instructions and a combination luminometer/fluorometer microplate reader (BMG Labtech). […]

T1 sequence (O00206 24-839): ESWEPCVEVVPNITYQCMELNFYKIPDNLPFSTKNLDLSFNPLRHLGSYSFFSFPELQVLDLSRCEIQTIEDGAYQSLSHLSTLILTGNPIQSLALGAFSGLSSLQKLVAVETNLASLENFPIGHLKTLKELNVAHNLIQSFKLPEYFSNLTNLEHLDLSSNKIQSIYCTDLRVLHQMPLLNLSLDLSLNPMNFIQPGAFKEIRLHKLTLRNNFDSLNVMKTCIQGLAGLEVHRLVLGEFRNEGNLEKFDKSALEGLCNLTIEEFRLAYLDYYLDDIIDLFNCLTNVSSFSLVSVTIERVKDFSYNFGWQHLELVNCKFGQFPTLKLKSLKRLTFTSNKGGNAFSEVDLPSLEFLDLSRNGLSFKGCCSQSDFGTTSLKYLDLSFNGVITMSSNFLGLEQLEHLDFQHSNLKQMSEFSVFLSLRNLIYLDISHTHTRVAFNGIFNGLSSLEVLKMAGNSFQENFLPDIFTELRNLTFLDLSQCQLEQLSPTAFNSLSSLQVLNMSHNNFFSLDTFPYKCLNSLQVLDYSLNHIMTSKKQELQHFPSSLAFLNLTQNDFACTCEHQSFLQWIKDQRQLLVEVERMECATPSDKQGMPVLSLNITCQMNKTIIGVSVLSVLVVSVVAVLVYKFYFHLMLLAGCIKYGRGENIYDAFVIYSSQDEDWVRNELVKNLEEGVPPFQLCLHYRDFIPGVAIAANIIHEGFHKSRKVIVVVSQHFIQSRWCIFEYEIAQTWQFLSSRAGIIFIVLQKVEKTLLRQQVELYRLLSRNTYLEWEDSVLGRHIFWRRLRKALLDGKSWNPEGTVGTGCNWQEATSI
T1 sequence (Q9Y6Y9 19-160): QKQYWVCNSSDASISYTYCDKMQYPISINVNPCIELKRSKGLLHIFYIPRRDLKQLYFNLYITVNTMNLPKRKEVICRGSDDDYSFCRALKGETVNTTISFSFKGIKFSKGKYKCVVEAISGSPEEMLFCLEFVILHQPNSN

Turning to `CCCCCCCCCCCCCCCC(=O)O[C@H](CCCCCCCCCCCC(C)C)CC(=O)N[C@H]1[C@H](OC[C@H]2O[C@H](OP(=O)(O)O)[C@H](NC(=O)C[C@H](O)CCCCCCCCCCCC(C)C)[C@@H](OC(=O)C[C@H](O)CCCCCCCCCCCCC)[C@@H]2O)O[C@H](CO)[C@@H](O)[C@@H]1O` [Compound 103, 6-O-{2-Deoxy-2-[(R)-3-hexadecanoyloxy-15-methyl-hexadecanoylamino]-β-D-glucopyranosyl}-3-O—[(R)-3-hydroxy-hexadecanoyl]-2-deoxy-2-[(R)-3-hydroxy-15-methyl-hexadecanoylamino]-α-D-glucopyranose 1-phosphate], the “TNF-α induction (in words)” value in test [1] was “did not exhibit any activity”. The “NF-κB activation, human TLR4/MD2/CD14” value in test [2] is “No activation of NF-κB”.
`CCCCCCCCCCCCCCCC(=O)O[C@H](CCCCCCCCCCCC(C)C)CC(=O)N[C@H]1[C@H](OC[C@H]2O[C@H](OP(=O)(O)O)[C@H](NC(=O)C[C@H](O)CCCCCCCCCCCC(C)C)[C@@H](O)[C@@H]2O)O[C@H](CO)[C@@H](O)[C@@H]1ONC(=O)C[C@H](O)CCCCCCCCCC(C)C` [Compound 104, 6-O-{2-Deoxy-2-[(R)-3-hexadecanoyloxy-15-methyl-hexadecanoylamino]-3-O—[(R)-3-hydroxy-13-methyl-tetradecanoylamino]-β-D-glucopyranosyl}-2-deoxy-2-[(R)-3-hydroxy-15-methyl-hexadecanoylamino]-α-D-glucopyranose 1-phosphate]: the “TNF-α induction (in words)” value in test [1] is “did not exhibit any activity”. In addition, the “NF-κB activation, human TLR4/MD2/CD14” value in test [2] is “No activation of NF-κB”.

Source of the values: US9309276B2, “Synthetic lipid A derivative” (University of Georgia Research Foundation, Inc., priority 2007, dated 2016).
